Results as given in patent publication US8642788B2, “Activators of executioner procaspases 3, 6 and 7” (The Regents of the University of California, priority 2008, dated 2014).
pEC50: −log10 of the molar value.

Tests used:
Assay type in all cases: biochemical
procaspase-6 = target: T1, procaspase-6 (Homo sapiens, UniProt P55212); assay: Executioner procaspase-6 activation assay (Ac-VEID-AFC fluorogenic substrate); details: incubation with compound for 5 h at 37° C.; 100 nM procaspase
T1 sequence (P55212 1-293): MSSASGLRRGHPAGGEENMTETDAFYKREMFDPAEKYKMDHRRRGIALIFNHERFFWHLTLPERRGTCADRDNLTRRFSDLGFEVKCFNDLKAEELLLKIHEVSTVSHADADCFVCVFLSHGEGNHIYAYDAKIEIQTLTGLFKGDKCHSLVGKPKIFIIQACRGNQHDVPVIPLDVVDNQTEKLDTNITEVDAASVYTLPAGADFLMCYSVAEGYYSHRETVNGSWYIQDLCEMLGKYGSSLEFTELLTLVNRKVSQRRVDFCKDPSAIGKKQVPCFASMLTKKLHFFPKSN
Method: (§1) The executioner procaspase-3, -6 and -7 activation assay protocol involves incubating the target protein at the physiologically-relevant concentration of 100 nM with activating compounds (ranging from 100 nM to 100 uM) in a total volume of 50 μL consisting of a reaction buffer of 50 mM HEPES, pH 7.4, 50 mM KCl, 1 mM DTT and 0.01% Triton-X100 (to reduce false positive hits due to compound aggregation). The procaspase/small molecule incubations are then agitated at 37° C. and assayed at various time points by addition of the fluorogenic peptide substrate 7-Amino-4-trifluoromethylcoumarin-DEVD (Ac-DEVD-AFC) (procaspases-3, -7) or Ac-VEID-AFC (procaspase-6) to a final concentration of 25 μM and analyzed by a kinetic 30 minute assay (excitation 365 nm and emission 495 nm). The final concentration of DMSO in each well is 3% and has no effect on enzyme stability or activity. […] All components of the assay including protein, substrate and inhibitor are stored as frozen aliquots and thawed immediately prior to the assay.
(§2) Tables 1 and 2. Procaspase activation as a result of incubation with compound for 5 h at 37° C. (+++ EC50˜0.5-10 μM; ++ EC50˜10-50 μM; + EC50˜50-200 μM; -no activation observed; ND not determined).

procaspase-3 = target: T2, procaspase-3 (Homo sapiens, UniProt P42574); assay: Executioner procaspase-3 activation assay (Ac-DEVD-AFC fluorogenic substrate); details: incubation with compound for 5 h at 37° C.; 100 nM procaspase; read-out: Procaspase Activation 3
T2 construct: His6 (C); made in house; host or cells: E. coli BL21(DE3)RP, pET-23b
T2 sequence (P42574 1-277): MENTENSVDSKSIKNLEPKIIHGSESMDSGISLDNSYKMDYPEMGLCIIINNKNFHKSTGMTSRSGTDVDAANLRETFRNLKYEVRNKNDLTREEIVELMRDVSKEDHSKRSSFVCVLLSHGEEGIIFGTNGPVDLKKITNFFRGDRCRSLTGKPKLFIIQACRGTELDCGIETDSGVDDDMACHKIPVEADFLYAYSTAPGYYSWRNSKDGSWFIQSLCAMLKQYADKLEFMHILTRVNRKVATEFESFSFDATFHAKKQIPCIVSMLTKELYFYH
Method: The executioner procaspase-3, -6 and -7 activation assay protocol involves incubating the target protein at the physiologically-relevant concentration of 100 nM with activating compounds (ranging from 100 nM to 100 uM) in a total volume of 50 μL consisting of a reaction buffer of 50 mM HEPES, pH 7.4, 50 mM KCl, 1 mM DTT and 0.01% Triton-X100 (to reduce false positive hits due to compound aggregation). […] All components of the assay including protein, substrate and inhibitor are stored as frozen aliquots and thawed immediately prior to the assay.

procaspase-7 = target: T3, procaspase-7 (Homo sapiens, UniProt P55210); assay: Executioner procaspase-7 activation assay (Ac-DEVD-AFC fluorogenic substrate); details: incubation with compound for 5 h at 37° C.; 100 nM procaspase
T3 construct: His6 (C); made in house; host or cells: E. coli BL21(DE3)RP, pET-21b
T3 sequence (P55210 1-303): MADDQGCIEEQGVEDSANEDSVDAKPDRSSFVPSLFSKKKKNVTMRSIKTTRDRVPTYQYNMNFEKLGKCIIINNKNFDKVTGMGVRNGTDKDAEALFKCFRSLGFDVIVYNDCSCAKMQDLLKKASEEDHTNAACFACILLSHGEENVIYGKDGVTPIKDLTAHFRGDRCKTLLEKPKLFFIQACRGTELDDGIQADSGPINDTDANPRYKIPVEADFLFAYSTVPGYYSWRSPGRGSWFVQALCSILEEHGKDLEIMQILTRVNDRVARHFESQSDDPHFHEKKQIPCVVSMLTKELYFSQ
Method: as §1, §2

Row | pEC50 (procaspase-6) | pEC50 (procaspase-3) | pEC50 (procaspase-7) | SMILES
1 | < 4.00 | < 4.00 | < 4.00 | COc1cccc2cc(C(=O)Nc3cccc(-c4ccc(Oc5ccccc5)cc4)c3)c(=O)oc12 [compound 60, 8-Methoxy-2-oxo-2H-chromene-3-carboxylic acid (4′-phenoxy-biphenyl-3-yl)-amide]
2 | < 4.00 | < 4.00 | < 4.00 | O=C(Nc1cccc(-c2ccc(Oc3ccccc3)cc2)c1)c1cc2cccc(OC(F)(F)F)c2oc1=O [compound 61, 8-Trifluoromethoxy-2-oxo-2H-chromene-3-carboxylic acid (4′-phenoxy-biphenyl-3-yl)-amide]
3 | < 4.00 | < 4.00 | 4.30 to 5.00 | O=C(Nc1cccc(-c2ccc3c(c2)OCO3)c1)c1cc2cccc(O)c2oc1=O [compound 62, 8-Hydroxy-2-oxo-2H-chromene-3-carboxylic acid (3-Benzo[1,3]dioxol-5-yl-phenyl)-amide]
4 | < 4.00 | < 4.00 | < 4.00 | COc1cccc2cc(C(=O)Nc3cccc(-c4ccc5c(c4)OCO5)c3)c(=O)oc12 [compound 63, 8-Methoxy-2-oxo-2H-chromene-3-carboxylic acid (3-Benzo[1,3]dioxol-5-yl-phenyl)-amide]
5 | < 4.00 | < 4.00 | < 4.00 | O=C(Nc1cccc(-c2ccc3c(c2)OCO3)c1)c1cc2cccc(OC(F)(F)F)c2oc1=O [compound 64, 8-Trifluoromethoxy-2-oxo-2H-chromene-3-carboxylic acid (3-Benzo[1,3]dioxol-5-yl-phenyl)-amide]
6 | < 4.00 | < 4.00 | < 4.00 | CCOc1ccc(-c2cccc(NC(=O)c3cc4cccc(O)c4oc3=O)c2)cc1C [compound 65, 8-Hydroxy-2-oxo-2H-chromene-3-carboxylic acid (4′-ethoxy-3′-methyl-biphenyl-3-yl)-amide]
7 | < 4.00 | < 4.00 | < 4.00 | CCOc1ccc(-c2cccc(NC(=O)c3cc4cccc(OC)c4oc3=O)c2)cc1C [compound 66, 8-Methoxy-2-oxo-2H-chromene-3-carboxylic acid (4′-ethoxy-3′-methyl-biphenyl-3-yl)-amide]
8 | < 4.00 | < 4.00 | < 4.00 | CCOc1ccc(-c2cccc(NC(=O)c3cc4cccc(OC(F)(F)F)c4oc3=O)c2)cc1C [compound 67, 8-Trifluoromethoxy-2-oxo-2H-chromene-3-carboxylic acid (4′-ethoxy-3′-methyl-biphenyl-3-yl)-amide]
9 | < 4.00 | < 4.00 | < 4.00 | CCOc1ccc(-c2cccc(NC(=O)c3cc4cccc(O)c4oc3=O)c2)cc1 [compound 68, 8-Hydroxy-2-oxo-2H-chromene-3-carboxylic acid (4′-Ethoxy-biphenyl-3-yl)-amide]
10 | < 4.00 | < 4.00 | < 4.00 | CCOc1ccc(-c2cccc(NC(=O)c3cc4cccc(OC)c4oc3=O)c2)cc1 [compound 69, 8-Methoxy-2-oxo-2H-chromene-3-carboxylic acid (4′-ethoxy-biphenyl-3-yl)-amide]
11 | < 4.00 | < 4.00 | < 4.00 | CCOc1ccc(-c2cccc(NC(=O)c3cc4cccc(OC(F)(F)F)c4oc3=O)c2)cc1 [compound 70, 8-Trifluoromethoxy-2-oxo-2H-chromene-3-carboxylic acid (4′-ethoxy-biphenyl-3-yl)-amide]
12 | < 4.00 | < 4.00 | < 4.00 | O=C(Nc1cccc(-c2ccccc2OC(F)(F)F)c1)c1cc2cccc(O)c2oc1=O [compound 71, 8-Hydroxy-2-oxo-2H-chromene-3-carboxylic acid (2′-trifluoromethoxy-biphenyl-3-yl)-amide]
13 | < 4.00 | < 4.00 | < 4.00 | COc1cccc2cc(C(=O)Nc3cccc(-c4ccccc4OC(F)(F)F)c3)c(=O)oc12 [compound 72, 8-Methoxy-2-oxo-2H-chromene-3-carboxylic acid (2′-trifluoromethoxy-biphenyl-3-yl)-amide]
14 | < 4.00 | < 4.00 | < 4.00 | O=C(Nc1cccc(-c2ccccc2OC(F)(F)F)c1)c1cc2cccc(OC(F)(F)F)c2oc1=O [compound 73, 8-Trifluoromethoxy-2-oxo-2H-chromene-3-carboxylic acid (2′-trifluoromethoxy-biphenyl-3-yl)-amide]
15 | < 4.00 | < 4.00 | 4.30 to 5.00 | O=C(Nc1cccc(-c2ccc3c(c2)CCO3)c1)c1cc2cccc(O)c2oc1=O [compound 74, 8-Hydroxy-2-oxo-2H-chromene-3-carboxylic acid [3-(2,3-Dihydro-benzofuran-5-yl)-phenyl]-amide]
16 | < 4.00 | < 4.00 | < 4.00 | COc1cccc2cc(C(=O)Nc3cccc(-c4ccc5c(c4)CCO5)c3)c(=O)oc12 [compound 75, 8-Methoxy-2-oxo-2H-chromene-3-carboxylic acid [3-(2,3-dihydro-benzofuran-5-yl)-phenyl]-amide]
17 | < 4.00 | < 4.00 | < 4.00 | O=C(Nc1cccc(-c2ccc3c(c2)CCO3)c1)c1cc2cccc(OC(F)(F)F)c2oc1=O [compound 76, 8-Trifluoromethoxy-2-oxo-2H-chromene-3-carboxylic acid [3-(2,3-dihydro-benzofuran-5-yl)-phenyl]-amide]
18 | < 4.00 | < 4.00 | 5.00 to 6.30 | COc1ccc2cc(-c3cccc(NC(=O)c4cc5cccc(O)c5oc4=O)c3)ccc2c1 [compound 77, 8-Hydroxy-2-oxo-2H-chromene-3-carboxylic acid [3-(6-methoxy-naphthalen-2-yl)-phenyl]-amide]
19 | < 4.00 | < 4.00 | < 4.00 | COc1ccc2cc(-c3cccc(NC(=O)c4cc5cccc(OC)c5oc4=O)c3)ccc2c1 [compound 78, 8-Methoxy-2-oxo-2H-chromene-3-carboxylic acid [3-(6-methoxy-naphthalen-2-yl)-phenyl]-amide]
20 | < 4.00 | < 4.00 | < 4.00 | COc1ccc2cc(-c3cccc(NC(=O)c4cc5cccc(OC(F)(F)F)c5oc4=O)c3)ccc2c1 [compound 79, 8-Trifluoromethoxy-2-oxo-2H-chromene-3-carboxylic acid [3-(6-methoxy-naphthalen-2-yl)-phenyl]-amide]
21 | < 4.00 | < 4.00 | < 4.00 | O=C(Nc1cccc(-c2ccc3ccccc3c2)c1)c1cc2cccc(O)c2oc1=O [compound 80, 8-Hydroxy-2-oxo-2H-chromene-3-carboxylic acid (3-Naphthalen-2-yl-phenyl)-amide]
22 | < 4.00 | < 4.00 | < 4.00 | COc1cccc2cc(C(=O)Nc3cccc(-c4ccc5ccccc5c4)c3)c(=O)oc12 [compound 81, 8-Methoxy-2-oxo-2H-chromene-3-carboxylic acid (3-Naphthalen-2-yl-phenyl)-amide]
23 | < 4.00 | < 4.00 | < 4.00 | O=C(Nc1cccc(-c2ccc3ccccc3c2)c1)c1cc2cccc(OC(F)(F)F)c2oc1=O [compound 82, 8-Trifluoromethoxy-2-oxo-2H-chromene-3-carboxylic acid (3-Naphthalen-2-yl-phenyl)-amide]
